# Target: T1, HSL (Rattus norvegicus, UniProt P15304)
# T1 construct: The partially purified HSL can be stored at −70° C. for 4 to 6 weeks; from tissue; host or cells: rat epididymal fat cells (male Wistar rats)
# T1 sequence (P15304 1-768 isoform P15304-2): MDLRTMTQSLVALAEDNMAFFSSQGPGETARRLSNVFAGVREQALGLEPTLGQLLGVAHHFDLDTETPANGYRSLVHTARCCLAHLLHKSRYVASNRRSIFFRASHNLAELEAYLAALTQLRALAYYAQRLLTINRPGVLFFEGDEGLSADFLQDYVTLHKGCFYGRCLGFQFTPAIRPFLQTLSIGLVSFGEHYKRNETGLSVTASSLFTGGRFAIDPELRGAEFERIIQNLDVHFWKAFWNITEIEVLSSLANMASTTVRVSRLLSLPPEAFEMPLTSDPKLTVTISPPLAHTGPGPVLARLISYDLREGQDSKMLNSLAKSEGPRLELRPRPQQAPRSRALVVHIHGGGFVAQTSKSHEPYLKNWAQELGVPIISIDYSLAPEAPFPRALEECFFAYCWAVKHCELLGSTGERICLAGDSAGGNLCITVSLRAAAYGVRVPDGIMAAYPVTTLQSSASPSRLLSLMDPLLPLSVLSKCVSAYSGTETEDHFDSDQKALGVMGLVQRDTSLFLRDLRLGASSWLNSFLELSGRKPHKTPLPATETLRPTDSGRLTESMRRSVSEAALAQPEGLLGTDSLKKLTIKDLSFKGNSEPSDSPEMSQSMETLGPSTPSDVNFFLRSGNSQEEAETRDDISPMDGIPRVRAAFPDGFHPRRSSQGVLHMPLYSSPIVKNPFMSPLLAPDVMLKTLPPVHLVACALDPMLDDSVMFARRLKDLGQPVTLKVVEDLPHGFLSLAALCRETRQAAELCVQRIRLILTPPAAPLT
# Assay: Indirect NAG assay (extinction increase at 481 nm)
# Assay type: biochemical
# Settings: 60 min
# Description: A typical reaction is carried out at 30° C. for 60 min, for example in 1.5 ml Eppendorf vessels or 96-hole plates. […] 180 μl of the substrate solution (20 μg/ml of phosphatidylcholine, 10 μg/ml of phosphatidylinositol, 50 μg/ml of NAG in assay buffer) are added. After a preincubation for 15 min at 30° C., 20 μl of HSL in assay buffer are pipetted in and the extinction is immediately measured (see above) at 481 nm in a cuvette photometer (0.5 ml cuvette) or microtiter plate reader. After a certain incubation time, which is variable and depends on the chosen enzyme concentration and can be between 2 and 240 minutes, in this case incubation at 30° C. for 60 min, the extinction is measured again. The increase in the extinction in the yellow region, in this case at 481 nm, is a measure of the enzyme activity.
# Isolated rat fat cells are obtained from epididymal fatty tissue from untreated male rats (Wistar, 220-250 g) by collagenase treatment according to published processes. The fat cells from 10 rats are washed three times by flotation with 50 ml each of homogenization buffer ([…], pH 7.4, 0.25 M sucrose, 1 mM ethylenediamine-N,N,N′,N′-tetraacetic acid (EDTA), 1 mM dithiothreitol (DTT), 10 μg/ml of leupeptin, 10 μg/ml of antipain, 20 μg/ml of pepstatin) and finally taken up in 10 ml of homogenization buffer. The fat cells are homogenized in a Teflon-in-glass homogenizer (Braun-Melsungen) by 10 strokes at 1500 rpm and 15° C. The homogenizate is centrifuged (Sorvall SM24 tubes, 5000 rpm, 10 min, 4° C.). The […] between the overlying fatty layer and the pellet is removed and the centrifugation is repeated. The […] resulting from this is centrifuged again (Sorvall SM24 tubes, 20,000 rpm, 45 min, 4° C.). […] After incubation for 60 min at 4° C. (shake at intervals of 15 min), the batch is centrifuged (Sorvall SM24 tubes, 3000 rpm, 10 min, 4° C.). The supernatant is brought to pH 5.2 by addition of glacial acetic acid and incubated at 4° C. for 30 min. […] The suspension is dialyzed overnight at 4° C. against 25 mM TRIS/HCl, pH 7.4, 50% glycerol, 1 mM DTT, and 10 μg/ml of leupeptin, pepstatin, and antipain and then applied to a hydroxylapatite column (0.1 g per 1 ml of suspension, equilibrated with 10 mM potassium phosphate, pH 7.0, 30% glycerol, 1 mM DTT). The column is washed with four volumes of equilibration buffer at a flow rate of 20 to 30 ml/h. The HSL is eluted with a volume of equilibration buffer which contains 0.5 M potassium phosphate, then dialyzed (see above) and concentrated 5 to 10 times by ultrafiltration (Amicon Diaflo PM 10 filter) at 4° C. The partially purified HSL can be stored at −70° C. for 4 to 6 weeks.
# 6 mg of phosphatidylcholine and 6 mg of phosphatidylinositol are dissolved in 1 ml of chloroform each. 10 mg of NAG are dissolved in 1 ml of chloroform. […] The chloroform (225 μl total volume) is completely removed by overblowing with a stream of N2. The dried substrate can be stored at 4° C. for up to three days. For the preparation of the phospholipid vesicles/micelles having intercalated NAG (on the test day), the dried substrate is taken up in 20 ml of assay buffer (25 mM TRIS/HCl, pH 7.4; 150 mM NaCl) and two ultrasonic treatments with an ultrasonic probe (Branson Sonifier type 11, standard microtip): 1st treatment setting 2, 2×1 min, in between in each case 1 min on ice; 2nd treatment setting 4, 2×1 min, in between in each case 1 min on ice. […] Before use as a substrate (within the next 2 h), the solution is additionally incubated on ice for 15 min.
# The assay is carried out at 30° C. for 60 min in 1.5 ml Eppendorf vessels or 96-hole plates.
compound,measurement,setting,value
O=C(CCCCCCCCCCCNc1ccc([N+](=O)[O-])c2nonc12)OCC(O)CO (centres unmarked) [Compound (3)],Increase in the absorption at 481 nm,"NAG 0.075 mg/ml, HSL 40 μg",15502 ± 1077 arb. units
same,Increase in the absorption at 481 nm,"NAG 0.1 mg/ml, HSL 5 μg",1521 ± 119 arb. units
same,Increase in the absorption at 481 nm,"NAG 0.1 mg/ml, HSL 20 μg",6124 ± 577 arb. units
same,Increase in the absorption at 481 nm,"NAG 0.1 mg/ml, HSL 40 μg",19223 ± 1599 arb. units
same,Increase in the absorption at 481 nm,"NAG 0.15 mg/ml, HSL 5 μg",1983 ± 155 arb. units
same,Increase in the absorption at 481 nm,"NAG 0.15 mg/ml, HSL 20 μg",7544 ± 603 arb. units
same,Increase in the absorption at 481 nm,"NAG 0.15 mg/ml, HSL 40 μg",26730 ± 2069 arb. units
same,Increase in the absorption at 481 nm,"NAG 0.2 mg/ml, HSL 5 μg",2242 ± 186 arb. units
same,Increase in the absorption at 481 nm,"NAG 0.2 mg/ml, HSL 20 μg",8898 ± 961 arb. units
same,Increase in the absorption at 481 nm,"NAG 0.2 mg/ml, HSL 40 μg",31641 ± 2304 arb. units
same,Increase in the absorption at 481 nm,"NAG 0.3 mg/ml, HSL 5 μg",2489 ± 213 arb. units
same,Increase in the absorption at 481 nm,"NAG 0.3 mg/ml, HSL 20 μg",9734 ± 825 arb. units
same,Increase in the absorption at 481 nm,"NAG 0.3 mg/ml, HSL 40 μg",35953 ± 3355 arb. units
same,Increase in the absorption at 481 nm,"PI/PC 0 mg/ml, PI:PC 1:1, HSL 20 μg, NAG 0.05 mg/ml",134 ± 23 arb. units
same,Increase in the absorption at 481 nm,"PI/PC 0 mg/ml, PI:PC 1:3, HSL 20 μg, NAG 0.05 mg/ml",89 ± 12 arb. units
same,Increase in the absorption at 481 nm,"PI/PC 0 mg/ml, PI:PC 3:1, HSL 20 μg, NAG 0.05 mg/ml",173 ± 42 arb. units
same,Increase in the absorption at 481 nm,"PI/PC 0.009 mg/ml, PI:PC 1:1, HSL 20 μg, NAG 0.05 mg/ml",548 ± 76 arb. units
same,Increase in the absorption at 481 nm,"PI/PC 0.009 mg/ml, PI:PC 1:3, HSL 20 μg, NAG 0.05 mg/ml",289 ± 77 arb. units
same,Increase in the absorption at 481 nm,"PI/PC 0.009 mg/ml, PI:PC 3:1, HSL 20 μg, NAG 0.05 mg/ml",1437 ± 132 arb. units
same,Increase in the absorption at 481 nm,"PI/PC 0.018 mg/ml, PI:PC 1:1, HSL 20 μg, NAG 0.05 mg/ml",1430 ± 188 arb. units
same,Increase in the absorption at 481 nm,"PI/PC 0.018 mg/ml, PI:PC 1:3, HSL 20 μg, NAG 0.05 mg/ml",692 ± 94 arb. units
same,Increase in the absorption at 481 nm,"PI/PC 0.018 mg/ml, PI:PC 3:1, HSL 20 μg, NAG 0.05 mg/ml",2610 ± 306 arb. units
same,Increase in the absorption at 481 nm,"PI/PC 0.075 mg/ml, PI:PC 1:1, HSL 20 μg, NAG 0.05 mg/ml",1138 ± 125 arb. units
same,Increase in the absorption at 481 nm,"PI/PC 0.075 mg/ml, PI:PC 1:3, HSL 20 μg, NAG 0.05 mg/ml",1679 ± 143 arb. units
same,Increase in the absorption at 481 nm,"PI/PC 0.075 mg/ml, PI:PC 3:1, HSL 20 μg, NAG 0.05 mg/ml",3365 ± 402 arb. units
same,Increase in the absorption at 481 nm,"PI/PC 0.15 mg/ml, PI:PC 1:1, HSL 20 μg, NAG 0.05 mg/ml",745 ± 97 arb. units
same,Increase in the absorption at 481 nm,"PI/PC 0.15 mg/ml, PI:PC 1:3, HSL 20 μg, NAG 0.05 mg/ml",912 ± 103 arb. units
same,Increase in the absorption at 481 nm,"PI/PC 0.15 mg/ml, PI:PC 3:1, HSL 20 μg, NAG 0.05 mg/ml",2108 ± 256 arb. units
same,Increase in the absorption at 481 nm,"PI/PC 0.3 mg/ml, PI:PC 1:1, HSL 20 μg, NAG 0.05 mg/ml",335 ± 47 arb. units
same,Increase in the absorption at 481 nm,"PI/PC 0.3 mg/ml, PI:PC 1:3, HSL 20 μg, NAG 0.05 mg/ml",427 ± 56 arb. units
same,Increase in the absorption at 481 nm,"PI/PC 0.3 mg/ml, PI:PC 3:1, HSL 20 μg, NAG 0.05 mg/ml",913 ± 102 arb. units
same,Extinction change at 480 nm,"standard conditions, 20 μg of partially purified HSL",4000 arb. units

# — patent US6783949B1, “Processes for determining whether a test substance contains lipases or lipase inhibitors” (Aventis Pharma Deutschland GmbH, priority 1999, dated 2004)
